Read-outs that look alike come from different tables or passages of the source. No end group written: not given here.
Tests used:
Nluc-PAC1R = biological target: T1, Nluc-PAC1R (Homo sapiens, UniProt P41586); assay: NanoBRET competition binding, AF568-PACAP27 probe (Fig. 5c); details: COS-7, 30 nM AF568-PACAP27, 4 °C, read-out: pIC50, PAC1R competition binding (converted)
T1 construct: A construct containing N-terminal NLuc immediately after the native signal peptide of PAC1R was also generated in pcDNA3.1; expressed in transfected cells; host or cells: COS-7 (transient, PEI; whole cells at 4 °C)
T1 sequence (P41586 21-468): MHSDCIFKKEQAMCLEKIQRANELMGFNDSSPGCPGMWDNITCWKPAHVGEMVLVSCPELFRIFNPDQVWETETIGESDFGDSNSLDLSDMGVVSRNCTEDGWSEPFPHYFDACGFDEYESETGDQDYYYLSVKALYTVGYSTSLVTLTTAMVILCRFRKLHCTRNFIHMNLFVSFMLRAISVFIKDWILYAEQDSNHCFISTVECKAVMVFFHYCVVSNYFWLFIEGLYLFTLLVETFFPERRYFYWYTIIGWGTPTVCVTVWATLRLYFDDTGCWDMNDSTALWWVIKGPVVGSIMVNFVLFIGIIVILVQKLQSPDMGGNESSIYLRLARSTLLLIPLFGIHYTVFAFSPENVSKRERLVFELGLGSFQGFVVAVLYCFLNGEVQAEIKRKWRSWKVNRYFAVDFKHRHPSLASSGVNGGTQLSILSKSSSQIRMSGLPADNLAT
Text: (§1) An HA signal peptide was inserted in place of the native signal peptide of the receptors and a FLAG epitope was incorporated into the receptor N-terminus immediately after the signal peptide. A His tag was fused to C-terminus of the receptor. 3C protease cleavage sites were inserted between both the FLAG and His tags and the receptor. […] The following PAC1R and VPAC1R mutants were also generated using Quikchange mutagenesis: PAC1R C25A, PAC1R C219A, PAC1R C25A/C219A, VPAC1R C37A and VPAC1R C208A. For all PAC1R constructs, we used the PAC1R null (PAC1n) splice variant. A construct containing N-terminal NLuc immediately after the native signal peptide of PAC1R was also generated in pcDNA3.1.
Therefore, the lysine residue at position 21 was replaced with a cysteine residue (^21C) for the facile conjugation of fluorophore via thiol-maleimide click reaction. The resulting target peptide ^21C-PACAP27 (Mutant fragment) with amidated C-terminus was synthesized by standard Fmoc-solid phase peptide synthesis method[43] and purified by Reversed-phase high-performance liquid chromatography (RP-HPLC). […] of Alexa Fluor™ 568F was purchased from ThermoFisher Scientific (Catalog number: A20003). The thiol-maleimide conjugation reaction was carried out by our published protocol. […] The molecular weight of the probe was confirmed by Matrix-Assisted Laser Desorption/Ionization Time-of-Flight Mass Spectrometry (MALDI-TOF MS).
COS-7 cells were plated in 10 cm dishes at approximately 1 million cells/dish. Cells were transfected 24 h later, using 3 μg of Nluc-PAC1R DNA using the method described above and then seeded at a density of 15,000 cells per well in white-bottom 96-well culturplates 24 h prior to assay. On the day of the assay, cell culture media was replaced with BRET buffer (0.1% ovalbumin, 10 mM HEPES, 1x HBSS, pH 7.45) and incubated at 4 °C for two hours. […] After 1.5 h, furimazine (10 μM final concentration) was added to each well and the plate incubated for a further 30 min in the dark at 4 °C before reading. Filtered light emissions were measured at 460±40 nm (donor channel) and at 610-LP nm (long pass) (acceptor channel) using a PHERAstar plate reader (BMG Labtech). The raw NanoBRET ratio was calculated by dividing the luminescence from the acceptor channel by the donor channel. Data were expressed as % AF568-PACAP27 BRET signal in the absence of competing ligand.
(§2) The pharmacological data in figures and tables are reported as mean + standard error of the mean (SEM) with the number of biological replicates indicated in the figure and table legends where “n” represents the number of biological replicates performed. Concentration-response data were analyzed in GraphPad Prism version 9.4.0 using a three-parameter logistic curve to derive pEC50 values for the cyclic AMP accumulation. Competition binding data were analyzed in GraphPad Prism using the one site—Fit log IC50 model to derive pIC50 values. For the cysteine mutagenesis data, comparisons of multiple different groups were performed using one-way analysis of variance (ANOVA), followed by Dunnett’s post-hoc test with the control group being the WT receptor, with significance accepted at p < 0.05. For the chimeric peptide data, comparisons of multiple different groups were performed using one-way ANOVA, followed by Tukey’s post-hoc test, with significance accepted at p < 0.05.

PAC1R = biological target: T2, PAC1R (Homo sapiens, UniProt P41586); assay: cAMP accumulation, chimeric peptides (Fig. 5b); type: cell-based; details: COS-7, three-parameter logistic, read-out: pEC50, PAC1R cAMP (converted)
T2 construct: An HA signal peptide was inserted in place of the native signal peptide of the receptors; HA signal peptide (replaces the native signal peptide) (N); 3C protease cleavage sites (between FLAG and receptor, and between receptor and His) (internal); expressed in transfected cells; host or cells: COS-7 (transient, PEI)
T2 sequence (P41586 21-468): T1 sequence (P41586 21-468)
Text: as §1
COS-7 cells were used for the chimeric peptide and cysteine mutagenesis pharmacological assays due to their lack of endogenous expression of PAC1R and receptor activity-modifying proteins, reported to potentially heterodimerize with PAC1R and VPAC1R[42]. Cells were cultured in Dulbecco’s Modified Eagle’s Medium (DMEM) (Invitrogen) supplemented with 5% v/v heat-inactivated FBS at 37 °C and […] /5% CO2 in a humidified incubator. COS-7 cells were plated in 10 cm dishes at approximately 1 million cells/dish. Cells were transfected 24 h later, with 5 µg of either WT or mutant PAC1R or VPAC1R receptor DNA. DNA and PEI (in a 1:6 ratio) were each diluted in 150 mM NaCl, and then combined and incubated for 10 min, before the mixture was added to the 10 cm dish. The next day, cells were harvested from the 10 cm dishes using Trypsin-Versene (PBS + 0.5 mM EDTA, pH 7.4), and were seeded at a density of 15,000 cells/well into clear 96-well culture plates and incubated overnight at 37 °C in 5% CO2 for cAMP accumulation assay the next day.
The reaction was terminated after 30 min by aspiration of the buffer and addition of 50 μl of ice-cold ethanol. Upon evaporation of ethanol, 75 μl of lysis buffer (5 mM HEPES, 0.1% (w/v) OVA, 0.3% (w/v) Tween20, pH 7.4) was added to the cells. cAMP detection was performed using a LANCE cAMP Detection Kit (PerkinElmer) for the construct validation and cysteine mutagenesis pharmacological assays and cAMP Gs HiRange kit (Cisbio) for the chimeric peptide pharmacological assays. The plates were read using an EnVision plate reader with excitation at 320 nm and emission at 615 nm[45].
as §2

| Molecule | IC50 (Nluc-PAC1R; replicate n=1) [µM] | IC50 (Nluc-PAC1R; replicate n=2) [µM] | IC50 (Nluc-PAC1R; replicate n=3) [µM] | IC50 (Nluc-PAC1R; replicate n=4) [µM] | IC50 (Nluc-PAC1R; replicate n=5) [µM] | EC50 (PAC1R; replicate n=1) [µM] | EC50 (PAC1R; replicate n=2) [µM] | EC50 (PAC1R; replicate n=3) [µM] | EC50 (PAC1R; replicate n=4) [µM] | EC50 (PAC1R; replicate n=5) [µM] |
| --- | --- | --- | --- | --- | --- | --- | --- | --- | --- | --- |
| CC[C@H](C)[C@H](NC(=O)[C@H](C)NC(=O)[C@H](CC(=O)O)NC(=O)[C@H](CO)NC(=O)[C@@H](N)Cc1cnc[nH]1)C(=O)N[C@@H](Cc1ccccc1)C(=O)N[C@H](C(=O)N[C@@H](CC(=O)O)C(=O)N[C@@H](CO)C(=O)N[C@@H](Cc1ccc(O)cc1)C(=O)N[C@@H](CO)C(=O)N[C@@H](CCCNC(=N)N)C(=O)N[C@@H](Cc1ccc(O)cc1)C(=O)N[C@@H](CCCNC(=N)N)C(=O)N[C@@H](CCCCN)C(=O)N[C@@H](CCC(N)=O)C(=O)N[C@@H](CCSC)C(=O)N[C@@H](C)C(=O)N[C@H](C(=O)N[C@@H](CCCCN)C(=O)N[C@@H](CCCCN)C(=O)N[C@@H](Cc1ccc(O)cc1)C(=O)N[C@@H](CC(C)C)C(=O)N[C@@H](C)C(=O)N[C@@H](C)C(=O)N[C@H](C(=O)N[C@@H](CC(C)C)C(N)=O)C(C)C)C(C)C)[C@@H](C)O [Ala4 PACAP27] | 0.695 | 1.97 | 0.546 | 0.918 | 2.86 | 0.00348 | 0.00167 | 0.00205 | 0.00865 | 0.00332 |
| HSDGVFTDNYTRLRKQMAVKKYLNSILN-NH2 [Gly4 VIP] | 7.55 | 5.5 | 7.11 | 3.4 | 1.14 | 0.0287 | 0.012 | 0.0126 | 0.0236 | 0.00796 |

Reference: PMC9668914, “Understanding VPAC receptor family peptide binding and selectivity” (Nature Communications, 2022)
